Data as given in ChEMBL document CHEMBL1155401, “The development of benzimidazoles as selective rho kinase inhibitors” (Bioorg Med Chem Lett, 2010).

What was measured:
[1] = Inhibition of ROCK by enzyme-coupled luciferase-kinase assay
Cytochrome P450 1A2 = molecular target: T1, Cytochrome P450 1A2 (Homo sapiens, UniProt P05177); assay: Inhibition of CYP1A2; type: ADME
T1 sequence (P05177 whole entry): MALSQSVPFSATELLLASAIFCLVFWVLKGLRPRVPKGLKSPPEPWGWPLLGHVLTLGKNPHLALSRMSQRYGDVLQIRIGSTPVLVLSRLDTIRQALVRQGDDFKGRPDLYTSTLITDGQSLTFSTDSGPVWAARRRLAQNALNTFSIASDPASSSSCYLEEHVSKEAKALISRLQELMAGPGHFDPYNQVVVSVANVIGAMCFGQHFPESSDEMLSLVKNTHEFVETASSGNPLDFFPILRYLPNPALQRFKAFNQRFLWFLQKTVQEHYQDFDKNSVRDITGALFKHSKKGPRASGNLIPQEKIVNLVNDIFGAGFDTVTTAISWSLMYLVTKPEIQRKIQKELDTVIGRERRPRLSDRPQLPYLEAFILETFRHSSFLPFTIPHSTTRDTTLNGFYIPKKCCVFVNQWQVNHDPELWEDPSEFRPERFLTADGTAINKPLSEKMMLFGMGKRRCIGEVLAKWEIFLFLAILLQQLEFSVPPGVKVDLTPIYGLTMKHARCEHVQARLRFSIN

[2] = Selectivity ratio of IC50 for PKA to IC50 to ROCK
[3] = Inhibition of PKA
Cytochrome P450 2D6 = Cytochrome P450 2D6 (Homo sapiens, UniProt P10635); assay: Inhibition of CYP2D6; type: ADME
Sequence of Cytochrome P450 2D6 (P10635 whole entry): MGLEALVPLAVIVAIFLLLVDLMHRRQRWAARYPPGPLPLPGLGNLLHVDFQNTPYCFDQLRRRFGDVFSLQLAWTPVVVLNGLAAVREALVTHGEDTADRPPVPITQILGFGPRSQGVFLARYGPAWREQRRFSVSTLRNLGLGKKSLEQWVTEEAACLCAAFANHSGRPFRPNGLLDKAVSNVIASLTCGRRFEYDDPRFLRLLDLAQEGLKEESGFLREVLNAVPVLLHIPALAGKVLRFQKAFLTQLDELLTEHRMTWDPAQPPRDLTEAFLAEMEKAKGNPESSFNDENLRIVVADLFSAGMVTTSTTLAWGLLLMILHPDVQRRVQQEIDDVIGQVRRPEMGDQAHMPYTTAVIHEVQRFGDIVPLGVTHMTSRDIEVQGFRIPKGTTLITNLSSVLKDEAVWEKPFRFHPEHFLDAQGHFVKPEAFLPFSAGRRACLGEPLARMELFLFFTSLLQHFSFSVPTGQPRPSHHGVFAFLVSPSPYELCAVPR

Cytochrome P450 3A4 = Cytochrome P450 3A4 (Homo sapiens, UniProt P08684); assay: Inhibition of CYP3A4; type: ADME
Sequence of Cytochrome P450 3A4 (P08684 whole entry): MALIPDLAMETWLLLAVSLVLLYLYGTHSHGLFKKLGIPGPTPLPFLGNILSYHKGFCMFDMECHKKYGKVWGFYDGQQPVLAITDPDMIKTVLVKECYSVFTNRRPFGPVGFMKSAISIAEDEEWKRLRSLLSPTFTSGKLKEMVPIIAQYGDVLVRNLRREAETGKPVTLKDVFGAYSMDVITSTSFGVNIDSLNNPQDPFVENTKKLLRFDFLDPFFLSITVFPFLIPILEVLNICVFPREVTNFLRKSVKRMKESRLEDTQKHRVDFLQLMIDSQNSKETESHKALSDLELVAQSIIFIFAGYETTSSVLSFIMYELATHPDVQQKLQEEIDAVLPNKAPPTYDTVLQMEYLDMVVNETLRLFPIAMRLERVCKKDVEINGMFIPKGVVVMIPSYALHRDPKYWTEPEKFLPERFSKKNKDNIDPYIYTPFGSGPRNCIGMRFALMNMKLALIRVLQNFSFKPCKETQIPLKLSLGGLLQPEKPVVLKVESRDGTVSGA

Cytochrome P450 2C9 = Cytochrome P450 2C9 (Homo sapiens, UniProt P11712); assay: Inhibition of CYP2C9; type: ADME
Sequence of Cytochrome P450 2C9 (P11712 whole entry): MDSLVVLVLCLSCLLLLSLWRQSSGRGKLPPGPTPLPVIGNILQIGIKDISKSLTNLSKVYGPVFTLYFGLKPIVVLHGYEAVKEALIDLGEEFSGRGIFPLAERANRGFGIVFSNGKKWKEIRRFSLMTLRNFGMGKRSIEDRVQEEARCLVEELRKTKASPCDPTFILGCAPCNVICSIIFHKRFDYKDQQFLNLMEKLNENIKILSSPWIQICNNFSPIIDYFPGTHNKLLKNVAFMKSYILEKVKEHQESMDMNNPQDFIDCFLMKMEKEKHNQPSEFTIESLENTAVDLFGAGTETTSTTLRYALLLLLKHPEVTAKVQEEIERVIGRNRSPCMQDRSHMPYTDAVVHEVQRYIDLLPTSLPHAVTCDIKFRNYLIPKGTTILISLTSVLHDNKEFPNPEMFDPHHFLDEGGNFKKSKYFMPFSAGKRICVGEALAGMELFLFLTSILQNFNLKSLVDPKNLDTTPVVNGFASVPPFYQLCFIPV

[4] = Inhibition of ROCK by myosin light chain phosphorylation assay
Rattus norvegicus = assay: AUC in rat at 2 mg/kg, po; type: ADME, organism-based, Plasma; set-up: dose 2 mg/kg, route oral; conditions: in vivo
[5] = Oral bioavailability in rat at 2 mg/kg; type: ADME, organism-based; conditions: in vivo
[6] = Half life in rat at 2 mg/kg, po or 1 mg/kg, iv; type: ADME, organism-based; conditions: in vivo
[7] = Cmax in rat at 2 mg/kg, po; type: ADME, organism-based; set-up: dose 2 mg/kg, route oral; conditions: in vivo
[8] = Half life in human liver microsomes; type: ADME, Microsome
[9] = Clearance in rat at 2 mg/kg, po or 1 mg/kg, iv; type: ADME, organism-based; conditions: in vivo
[10] = Volume of distribution at steady state in rat at 2 mg/kg, po or 1 mg/kg, iv; type: ADME, organism-based; conditions: in vivo, read-out: Vdss

| Compound | IC50 [1] [nM] | Activity (Cytochrome P450 1A2) | Ratio IC50 [2] | IC50 [3] [nM] | Activity (Cytochrome P450 2D6) | Activity (Cytochrome P450 3A4) | Activity (Cytochrome P450 2C9) | IC50 [4] [nM] | AUC (Rattus norvegicus) [µM·h] | bioavailability [5] [%] | half-life [6] [h] | Cmax [7] [nM] | half-life [8] [h] | clearance [9] [mL/min/kg] | Vd [10] [L/kg] |
| --- | --- | --- | --- | --- | --- | --- | --- | --- | --- | --- | --- | --- | --- | --- | --- |
| Cn1c(C2COc3ccccc3O2)nc2ccc(-c3ccncc3)cc21 (centres undefined) | 15 | Active | 131 | 1960 | Active | Active | Active |  |  |  |  |  |  |  |  |
| Cc1cc(-c2ccncc2)cc2[nH]c(C3COc4ccccc4O3)nc12 (centres undefined) | 240 | Active | 6 | 1380 | Active | Active | Active |  |  |  |  |  |  |  |  |
| c1ccc2c(c1)CC(c1nc3ccc(-c4ccncc4)cc3[nH]1)CO2 (centres undefined) | 1.7 | Active | 148 | 252 | Active | Active | Active |  |  |  |  |  |  |  |  |
| COc1ccc2c(c1)CC(c1nc3c(OCCCO)cc(-c4ccncc4)cc3[nH]1)CO2 (centres undefined) | 183 | Active | 9 | 1590 | Active | Active | Active |  |  |  |  |  |  |  |  |
| COc1cccc2c1CC(c1nc3ccc(-c4ccnc(N)n4)cc3[nH]1)CO2 (centres undefined) | 25 |  | 12 | 310 |  |  |  |  |  |  |  |  |  |  |  |
| c1ccc(CCn2c(C3COc4ccccc4O3)nc3ccc(-c4ccncc4)cc32)cc1 (centres undefined) | 680 | Active | 13 | 8810 | Active | Active | Active |  |  |  |  |  |  |  |  |
| FC(F)(F)c1cc2nc(C3COc4ccccc4O3)[nH]c2cc1-c1ccncc1 (centres undefined) | 2970 | Active | 1 | 3080 | Active | Active | Active |  |  |  |  |  |  |  |  |
| COc1c(-c2ccncc2)ccc2nc(C3COc4ccccc4C3)[nH]c12 (centres undefined) | 4.1 | Active | 46 | 187 | Active | Active | Active |  |  |  |  |  |  |  |  |
| Nc1nccc(-c2ccc3nc(C4COc5ccc(C(=O)NCCc6ccccn6)cc5C4)[nH]c3c2)n1 (centres undefined) | 0.43 |  | 709 | 305 |  |  |  |  |  |  |  |  |  |  |  |
| Nc1nccc(-c2ccc3nc(C4COc5ccc(C(=O)NC6CCCCC6)cc5C4)[nH]c3c2)n1 (centres undefined) | 1.1 |  | 18 | 20 |  |  |  |  |  |  |  |  |  |  |  |
| COc1ccc2c(c1)CC(c1nc3c(OCCN(C)C)cc(-c4ccncc4)cc3[nH]1)CO2 (centres undefined) | 440 | Active | > 45 | > 20000 | Active | Active | Active |  |  |  |  |  |  |  |  |
| c1ccc2c(c1)OCC(c1nc3ccc(-c4ccncc4)cc3n1CC1CC1)O2 (centres undefined) | 24 | Active | 35 | 850 | Active | Active | Active |  |  |  |  |  |  |  |  |
| Cc1c(-c2ccncc2)cc2[nH]c(C3COc4ccccc4O3)nc2c1C (centres undefined) | > 20000 | Active |  | > 20000 | Active | Active | Active |  |  |  |  |  |  |  |  |
| COc1ccc2c(c1)CC(c1nc3ccc(-c4ccnc(N)n4)cc3[nH]1)CO2 (centres undefined) | 1.7 |  | 285 | 485 |  |  |  | 85 | 1.9 |  |  |  |  |  |  |
| Nc1nccc(-c2ccc3nc(C4COc5ccc(C(=O)NCCc6cccnc6)cc5C4)[nH]c3c2)n1 (centres undefined) | 0.25 |  | 1770 | 442 |  |  |  | 250 | 0.08 | 6 | 3.6 | 5 | 0.025 | 58 | 5.9 |
| Nc1nccc(-c2ccc3nc(C4COc5ccc(C(=O)NCCc6ccccc6)cc5C4)[nH]c3c2)n1 (centres undefined) | 1.7 |  | 412 | 700 |  |  |  |  |  |  |  |  |  |  |  |

| Compound | IC50 [1] [nM] | Activity (Cytochrome P450 1A2) | Ratio IC50 [2] | IC50 [3] [nM] | Activity (Cytochrome P450 2D6) | Activity (Cytochrome P450 3A4) | Activity (Cytochrome P450 2C9) | IC50 [4] [nM] | AUC (Rattus norvegicus) [µM·h] | bioavailability [5] [%] | half-life [6] [h] | Cmax [7] [nM] | half-life [8] [h] | clearance [9] [mL/min/kg] | Vd [10] [L/kg] |
| --- | --- | --- | --- | --- | --- | --- | --- | --- | --- | --- | --- | --- | --- | --- | --- |
| Nc1nccc(-c2ccc3nc(C4COc5ccccc5C4)[nH]c3c2)n1 (centres undefined) | 8 |  | 24 | 195 |  |  |  |  |  |  |  |  |  |  |  |
| Nc1nccc(-c2ccc3nc(C4COc5ccc(C(=O)NCc6ccccc6)cc5C4)[nH]c3c2)n1 (centres undefined) | < 1 |  | 78 | 78 |  |  |  |  |  |  |  |  |  |  |  |
| CN(C)CCCNC(=O)c1ccc2c(c1)CC(c1nc3ccc(-c4ccnc(N)n4)cc3[nH]1)CO2 (centres undefined) | 1.2 |  | 227 | 272 |  |  |  | 2700 | 0.01 | < 1 | 3 | 3 | 1.67 | 27 | 4.6 |
| c1ccc2c(c1)OCC(c1nc3ccc(-c4ccncc4)cc3[nH]1)O2 (centres undefined) | 7.5 | Active | 47 | 355 | Active | Active | Active |  |  |  |  |  |  |  |  |
| c1ccc(Cn2c(C3COc4ccccc4O3)nc3ccc(-c4ccncc4)cc32)cc1 (centres undefined) | 190 | Active | 5 | 1000 | Active | Active | Active |  |  |  |  |  |  |  |  |
| COc1ccc2c(c1)OCC(c1nc3ccc(-c4ccnc(N)n4)cc3[nH]1)C2 (centres undefined) | 95 |  | 4.6 | 435 |  |  |  |  |  |  |  |  |  |  |  |
| Nc1nccc(-c2ccc3nc(C4COc5ccc(C(=O)NCCO)cc5C4)[nH]c3c2)n1 (centres undefined) | 2.8 |  | 132 | 370 |  |  |  |  |  |  |  |  |  |  |  |
| CN(C)CCNC(=O)c1ccc2c(c1)CC(c1nc3ccc(-c4ccnc(N)n4)cc3[nH]1)CO2 (centres undefined) | 1.5 |  | 219 | 328 |  |  |  |  |  |  |  |  |  |  |  |
| Cn1c(C2COc3ccccc3O2)nc2cc(-c3ccncc3)ccc21 (centres undefined) | 1780 | Active | 2 | 3130 | Active | Active | Active |  |  |  |  |  |  |  |  |
| Nc1nccc(-c2ccc3nc(C4COc5ccc(C(=O)NCc6cccnc6)cc5C4)[nH]c3c2)n1 (centres undefined) | 0.78 |  | 105 | 82 |  |  |  |  |  |  |  |  |  |  |  |
| c1ccc2c(c1)OCC(c1nc3ccc(-c4ccncc4)cc3n1CCN1CCOCC1)O2 (centres undefined) | 130 | Active | 47 | 6120 | Active | Active | Active |  |  |  |  |  |  |  |  |
| COc1cccc2c1OCC(c1nc3ccc(-c4ccnc(N)n4)cc3[nH]1)C2 (centres undefined) | 256 |  | 0.9 | 232 |  |  |  |  |  |  |  |  |  |  |  |
| COCCn1c(C2COc3ccccc3O2)nc2ccc(-c3ccncc3)cc21 (centres undefined) | 11 | Active | 28 | 310 | Active | Active | Active |  |  |  |  |  |  |  |  |
| c1ccc2c(c1)OCC(c1nc3ccc(-c4ccncc4)cc3n1C1CCOCC1)O2 (centres undefined) | 27 | Active | 19 | 509 | Active | Active | Active |  |  |  |  |  |  |  |  |
| CN(C)C(=O)c1ccc2c(c1)CC(c1nc3ccc(-c4ccnc(N)n4)cc3[nH]1)CO2 (centres undefined) | 129 |  | 13 | 1730 |  |  |  |  |  |  |  |  |  |  |  |
